Assay results as given in US20260041640A1 (INCYCLIX BIO, LLC, priority 2023, published 2026).
Several values for one entry are separate records, joined by “and”; a condition that tells them apart may be missing. Equal values may be shown once. Read-outs that look alike come from different tables or passages of the source.

Test: First-in-human clinical study: plasma and whole blood PK of INX-315 (oral QD, ASD tablet)
Type: in vivo
From the text: All INX-315 tablets were taken at approximately the same time(s) each day.
Samples will also be collected pre-dose on Cycle 1 Days 2, 8, 16, and Day 22, and pre-dose on Day 1 of each subsequent cycle.
Standard non-compartmental PK parameters were estimated.
Geometric mean and geometric CV % will be included in the summary statistics.
PK parameters will be summarized descriptively by dosing cohort. AUC and Cmax values will also be presented in scatter plots. Dose proportionality will be assessed for AUC and Cmax using a power model. The 90% CI of the slope for each PK parameter will be estimated from the model and presented in a summary table.
Cohort 1 enrollment of 6 subjects dosed at 100 mg oral QD was completed in October of 2023.
Patients were upgraded to the 200 mg QD dose level and PK/PD plasma parameters were measured (FIG. 18A).
Patients were administered the 200 mg QD and 300 mg QD dose levels and PK/PD plasma parameters were measured.

[1] = plasma, 100 mg QD cohort, Day 1, individual subjects
[2] = plasma, 100 mg QD cohort, Day 1, median
[3] = plasma, 100 mg QD cohort, Day 15, individual subjects
[4] = plasma, 100 mg QD cohort, Day 15, median
[5] = plasma, 100 mg QD, Day 1, individual patients
[6] = plasma, 100 mg QD, Day 15, individual patients
[7] = plasma, 200 mg QD, Day 1, Cohort 2
[8] = plasma, 200 mg QD, Day 1, individual subjects
[9] = plasma, 200 mg QD, Day 15, Cohort 2
[10] = plasma, 200 mg QD, Day 15, individual subjects
[11] = plasma, 300 mg QD cohort, Day 1, individual subjects
[12] = plasma, 300 mg QD cohort, Day 1, median
[13] = plasma, 300 mg QD cohort, Day 15, individual subjects
[14] = whole blood, 100 mg QD, Day 1, individual patients
[15] = whole blood, 100 mg QD, Day 15, individual patients

NS(=O)(=O)c1ccc(Nc2ncc3cc4n(c3n2)C2(CCCCC2)C(=O)NN4)cc1 [INX-315]
Tmax (human, plasma, po, 100 mg, plasma, 100 mg QD cohort, Day 1, median, read-out: Tmax, Median): 4 h
half-life (human, plasma, po, 100 mg, plasma, 100 mg QD cohort, Day 1, median, read-out: t1/2, Median (converted)): 15.6 h
AUC(0-t) (human, plasma, po, 100 mg, plasma, 100 mg QD cohort, Day 15, geometric mean, read-out: AUClast, Geometric Mean): 3.29 µg·h/mL
Cmax (human, plasma, po, 100 mg, plasma, 100 mg QD cohort, Day 15, geometric mean, read-out: Cmax, Geometric Mean): 0.211 µg/mL
half-life (human, plasma, po, 100 mg, plasma, 100 mg QD cohort, Day 15, individual subjects, read-out: t1/2 (converted)): 17.6 h
AUC(0-t) (human, plasma, po, 100 mg, plasma, 100 mg QD cohort, Day 15, median, read-out: AUClast, Median): 3.12 µg·h/mL
Cmax (human, plasma, po, 100 mg, plasma, 100 mg QD cohort, Day 15, median, read-out: Cmax, Median): 0.217 µg/mL
Tmax (human, plasma, po, 100 mg, plasma, 100 mg QD cohort, Day 15, median, read-out: Tmax, Median): 6 h
half-life (human, whole blood, oral, 100 mg, preliminary data, first two patients, 100 mg QD, read-out: t1/2 (converted)): ≥ 15 h
AUC(0-t) (human, whole blood, oral, 100 mg, whole blood, 100 mg QD, Day 1, Cohort 1 (Table 28), read-out: AUClast, geometric mean): 34.7 µg·h/mL
Cmax (human, whole blood, oral, 100 mg, whole blood, 100 mg QD, Day 1, Cohort 1 (Table 28), read-out: Cmax, geometric mean): 2.28 µg/mL
Tmax (human, whole blood, oral, 100 mg, whole blood, 100 mg QD, Day 1, Cohort 1 (Table 28), read-out: Tmax, median): 6 h
half-life (human, whole blood, oral, 100 mg, whole blood, 100 mg QD, Day 1, Cohort 1 (Table 28), read-out: t1/2, geometric mean (converted)): 17.9 h
AUC (human, whole blood, oral, 100 mg, whole blood, 100 mg QD, Day 1 observed, mean of first two patients, read-out: AUC): 50.6 µg·h/mL
Cmax (human, whole blood, oral, 100 mg, whole blood, 100 mg QD, Day 1 observed, mean of first two patients, read-out: Cmax): 3 µg/mL
AUC(0-t) (human, whole blood, oral, 100 mg, whole blood, 100 mg QD, Day 15, Cohort 1 (Table 28), read-out: AUClast, median): 62.7 µg·h/mL
Cmax (human, whole blood, oral, 100 mg, whole blood, 100 mg QD, Day 15, Cohort 1 (Table 28), read-out: Cmax, median): 3.58 µg/mL
Tmax (human, whole blood, oral, 100 mg, whole blood, 100 mg QD, Day 15, Cohort 1 (Table 28), read-out: Tmax, median): 6 h
half-life (human, whole blood, oral, 100 mg, whole blood, 100 mg QD, Day 15, individual patients, read-out: t1/2 (converted)): 21.6 h
AUC (human, whole blood, oral, 100 mg, whole blood, 100 mg QD, Day 15 observed, mean of first two patients, read-out: AUC): 116 µg·h/mL
Cmax (human, whole blood, oral, 100 mg, whole blood, 100 mg QD, Day 15 observed, mean of first two patients, read-out: Cmax): 5.44 µg/mL
AUC (human, whole blood, oral, 200 mg, Cohort 2 (200 mg QD), Day 1, individual subjects, read-out: AUC Whole Blood): 96.7 µg·h/mL
AUC (human, whole blood, oral, 300 mg, Cohort 3 (300 mg QD), Day 1, individual subjects, read-out: AUC Whole Blood): 134 µg·h/mL
AUC (human, whole blood, oral, 300 mg, Cohort 3 (300 mg QD), Day 15, Tlast = 6 hours, read-out: AUC Whole Blood): 43.9 µg·h/mL
AUC (human, whole blood, oral, 300 mg, Cohort 3 (300 mg QD), Day 15, individual subjects, read-out: AUC Whole Blood): 86.4 µg·h/mL
Clast, geometric mean (plasma, 100 mg QD cohort, Day 1, geometric mean): 0.0487 µg/mL
AUClast [1]: 2.41 µg·h/mL and 1.84 µg·h/mL and 3.3 µg·h/mL and 2.16 µg·h/mL and 3.36 µg·h/mL and 0.633 µg·h/mL
Clast [1]: 0.0423 µg/mL and 0.0507 µg/mL and 0.0852 µg/mL and 0.0319 µg/mL and 0.114 µg/mL and 0.02 µg/mL
Cmax [1]: 0.32 µg/mL and 0.109 µg/mL and 0.197 µg/mL and 0.0438 µg/mL
Tlast [1]: 24 h
Clast, median [2]: 0.0465 µg/mL
Tlast, Median [2]: 24 h
Clast, geometric mean (plasma, 100 mg QD cohort, Day 15, geometric mean): 0.0906 µg/mL
AUClast [3]: 6.84 µg·h/mL and 1.93 µg·h/mL and 1.64 µg·h/mL and 5.7 µg·h/mL
Clast [3]: 0.188 µg/mL and 0.0654 µg/mL and 0.0631 µg/mL and 0.154 µg/mL and 0.0512 µg/mL
Cmax [3]: 0.424 µg/mL and 0.0964 µg/mL and 0.344 µg/mL
Tlast [3]: 24 h
t1/2 [3]: 16.0 h
Clast, median [4]: 0.0654 µg/mL
Tlast, Median [4]: 24 h
dose proportionality of exposure (AUC) (plasma, 100 mg QD versus 200 mg QD): dose-proportional increase in exposure (or greater)
dose proportionality of exposure (plasma, 100 mg QD versus 200 mg QD and 300 mg QD): dose-proportional increase in exposure (or greater)
Clast, geometric mean (plasma, 100 mg QD, Day 1, Cohort 1 (Table 27)): 0.0614 µg/mL
AUClast [5]: 3.41 µg·h/mL and 2.16 µg·h/mL and 2.51 µg·h/mL and 1.99 µg·h/mL
Clast [5]: 0.119 µg/mL and 0.0863 µg/mL and 0.0339 µg/mL and 0.0439 µg/mL and 0.057 µg/mL
Cmax [5]: 0.194 µg/mL and 0.197 µg/mL and 0.179 µg/mL and 0.326 µg/mL and 0.119 µg/mL
Tlast [5]: 24 h
t1/2 [5]: 8.88 h and 11.5 h and 16.7 h
AUClast [6]: 5.92 µg·h/mL
Clast [6]: 0.199 µg/mL and 0.155 µg/mL
Cmax [6]: 0.358 µg/mL
Tlast [6]: 24 h
t1/2 [6]: 15.2 h
Clast, geometric mean [7]: 0.223 µg/mL
Clast, median [7]: 0.261 µg/mL
Tlast, Median [7]: 24 h
AUClast [8]: 7.3 µg·h/mL and 11.3 µg·h/mL and 19.1 µg·h/mL and 4.54 µg·h/mL
Clast [8]: 0.212 µg/mL and 0.291 µg/mL and 0.487 µg/mL and 0.0697 µg/mL and 0.261 µg/mL
Cmax [8]: 0.444 µg/mL and 0.8 µg/mL and 1.14 µg/mL and 0.305 µg/mL
Tlast [8]: 24 h
Clast, geometric mean [9]: 0.263 µg/mL
Clast, median [9]: 0.32 µg/mL
Tlast, Median [9]: 24 h
AUClast [10]: 6.56 µg·h/mL and 14.3 µg·h/mL and 18.1 µg·h/mL and 13.2 µg·h/mL
Clast [10]: 0.0888 µg/mL and 0.324 µg/mL and 0.521 µg/mL and 0.317 µg/mL
Cmax [10]: 1.23 µg/mL and 0.997 µg/mL and 0.758 µg/mL
Tlast [10]: 24 h
t1/2 [10]: 10.5 h and 14.3 h
Clast, geometric mean (plasma, 300 mg QD cohort, Day 1, geometric mean): 0.213 µg/mL
AUClast [11]: 7.59 µg·h/mL and 11 µg·h/mL and 8.08 µg·h/mL and 11.5 µg·h/mL
Clast [11]: 0.148 µg/mL and 0.135 µg/mL and 0.303 µg/mL and 0.219 µg/mL and 0.331 µg/mL
Cmax [11]: 0.55 µg/mL and 0.49 µg/mL and 0.812 µg/mL
Tlast [11]: 24 h
t1/2 [11]: 16.2 h
Clast, median [12]: 0.219 µg/mL
Tlast, Median [12]: 24 h
AUClast [13]: 4.43 µg·h/mL
Clast [13]: 0.0968 µg/mL and 0.359 µg/mL
Cmax [13]: 0.84 µg/mL
Tlast [13]: 24 h and 8 h
Tmax [13]: 0.5 h
t1/2 [13]: 5.80 h
factor by which observed AUC exceeded the model (whole blood, 100 mg QD, Day 1): 9 ×
Clast, geometric mean (whole blood, 100 mg QD, Day 1, Cohort 1 (Table 28)): 0.956 µg/mL
AUClast [14]: 60.5 µg·h/mL and 40.6 µg·h/mL and 37.8 µg·h/mL and 32.5 µg·h/mL and 13.4 µg·h/mL and 43.6 µg·h/mL
Clast [14]: 1.84 µg/mL and 1.02 µg/mL and 1.18 µg/mL and 0.719 µg/mL and 0.502 µg/mL and 0.954 µg/mL
Cmax [14]: 3.43 µg/mL and 2.57 µg/mL and 2.11 µg/mL and 2.71 µg/mL and 0.805 µg/mL and 3.47 µg/mL
Tlast [14]: 24 h
t1/2 [14]: 22.4 h and 13.9 h and 20.5 h and 14.5 h and 27.4 h and 12.8 h
Cmin (whole blood, 100 mg QD, Day 1 observed, mean of first two patients): 1.43 µg/mL
Clast, median (whole blood, 100 mg QD, Day 15, Cohort 1 (Table 28)): 1.67 µg/mL
AUClast [15]: 117 µg·h/mL and 31.4 µg·h/mL
Clast [15]: 3.22 µg/mL and 1.67 µg/mL and 0.891 µg/mL
Cmax [15]: 7.29 µg/mL and 1.82 µg/mL
Tlast [15]: 24 h
t1/2 [15]: 18.3 h
Cmin (whole blood, 100 mg QD, Day 15 observed, mean of first two patients): 2.445 µg/mL
Total Area (whole blood, 100 mg QD, d 1, Patients 1 and 2): 60740 and 41732
Total Area (whole blood, 100 mg QD, d 15, Patients 1 and 2): 118285 and 65180
